Patent publication US20060134801A1, “Methods and compositions involving MDA-7” (Board of Regents, The University of Texas System, priority 2003, published 2006)

What was measured:
[1] = test system: H1299 lung tumor xenografts; test: H1299 subcutaneous xenograft, Ad-mda7 with sulindac; settings: vector 3×10^9 vp intratumoral thrice a week; sulindac 40 mg/kg i.p. daily
Protocol: In mice receiving sulindac, 40 mg/kg was administered i.p. every day. Animals were weighed once a week to determine the body weight. Tumor growth was monitored and measured three times a week as described previously (Saeki et al., 2002; Ramesh et al., 2003). At 22-25 days after initiation of the treatment all animals were killed via CO2 inhalation, and the tumors were removed for histopathologic examination and western blot analysis. Experiments were performed two separate times for reproducibility and statistical significance.

H1299 [2] = test: Cell proliferation assay (trypan blue); format: cell-based; settings: Homo sapiens, NCI-H1299; read-out: IC50 of growth inhibition
Protocol: (§1) All three cell lines (A549, H1299, and CCD-16) were seeded in 60-mm-diameter tissue culture dishes at a density of 1×10^5 cells/dish in triplicate. […] The concentrations of sulindac tested were 0.125, 0.25, and 0.5 mM. At 72 h after the start of treatment, the cells were harvested by trypsinization, washed, and subjected to typan-blue exclusion assay as previously described (Saeki et al., 2000).

A549 [3] = test: Ad-GFP transduction efficiency with sulindac (flow cytometry); format: cell-based, human; settings: Ad-GFP 100 vp/cell, 24 h
Protocol: (§2) To determine the effect of sulindac on adenovirus transduction, tumor and normal cells were infected with Ad-GFP at 100 vp/cell and analyzed for GFP expression at 24 h by FACS.

H1299 [4] = test: as above; format: cell-based, human; settings: Ad-GFP 100 vp/cell, 24 h
Protocol: as §2

CCD-16 [5] = test: as above; format: cell-based, human; settings: Ad-GFP 100 vp/cell, 24 h
Protocol: as §2

[6] = molecular target: T1, proteasome in H1299 cells (Homo sapiens, UniProt P28074); test: Proteasome activity assay and ubiquitinated protein western blot; format: cell-based; settings: vs untreated control cells
T1 construct: endogenous in cells; host or cells: H1299 human lung cancer cells, treated and then lysed; 20 µg total lysate protein per reaction
Protocol: Proteasome activity assays were performed as previously described (Choi et al., 2003). […] The sulindac concentrations tested were the same as those in the other assays. At 24 h after the start of treatment, the cells were lysed in proteasome buffer (10 mM Tris-HCl, pH 7.5, 1 mM EDTA, 20% glycerol, 5 mM ATP, and 4 mM DTT), sonicated, and then centrifuged at 1300×g at 4° C. for 10 min. The upper supernatant phase was collected, and the protein concentration of cell lysates was determined as previously described (Saeki et al., 2000).
To assay the chymotrypsin-like activity of the proteasome, the fluorogenic substrate Suc-LLVY-AMC (Chemicon International, Inc., Temecula, Calif.) was used. Twenty micrograms of total protein from each treatment group described above was diluted to 100 μl in reaction buffer (25 mM HEPES, pH 7.5, 0.5 mM EDTA, 0.05% NP-40, and 0.001% SDS). […] The intensity of fluorescence in each sample solution was measured using a fluorescence plate reader (Dynatech Laboratories, Chantily, Va.) at 360-nm excitatory and 460-nm emission wavelengths. All readings were standardized using the fluorescence intensity of an equal volume of free 7-Amino-4-methylcoumarin (AMC) solution (50 μM). The values were expressed as percentages for control greater than the internal positive control percentages provided by the supplier.

CCD-16 [7] = test: Cell proliferation assay (trypan blue); format: cell-based, human
Protocol: as §1

A549 [8] = test: Cell proliferation assay (trypan blue); format: cell-based, human
Protocol: as §1, with “The concentrations of sulindac tested were 0.125, 0.25, and 0.5 mM.” left out

NF-κB = NF-κB activation by EMSA; format: cell-based, human; settings: H1299 and A549
A549 [9] = test: Cell cycle distribution by FACS; format: cell-based, human; settings: 72 h
Protocol: (§3) Each treatment group was tested in triplicate. The concentrations of sulindac used were the same as those for the cell-proliferation assay. At 72 h after the start of the treatment, cells were harvested, washed, and analyzed for cell cycle phases and apoptotic fraction as previously described (Saeki et al., 2000). The cell cycle phases and DNA contents were analyzed using FACScan (EPICS XL-MCL; Beckman Coulter, Fullerton, Calif.).

H1299 [10] = test: Cell cycle distribution by FACS; format: cell-based, human; settings: 72 h
Protocol: as §3

T1 sequence (P28074 60-263): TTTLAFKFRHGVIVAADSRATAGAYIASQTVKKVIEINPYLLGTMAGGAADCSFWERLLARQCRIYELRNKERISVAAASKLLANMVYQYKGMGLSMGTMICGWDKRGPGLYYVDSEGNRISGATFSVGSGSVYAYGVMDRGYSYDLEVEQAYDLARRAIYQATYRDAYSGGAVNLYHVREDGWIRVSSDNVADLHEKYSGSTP

In the case of `CC1=C(CC(=O)O)c2cc(F)ccc2/C1=C\c1ccc([S+](C)[O-])cc1` (centres unmarked) [Sulindac], the tumor growth [1] is reported as “No significant growth inhibition”, the IC50 (H1299 [2]) is reported as 610 µM and the transduction efficiency (A549 [3]; sulindac 0.125 mM) is reported as 52.4 ± 0.6%. The transduction efficiency (A549 [3]; sulindac 0.25 mM) was 51.5 ± 1.3%, the transduction efficiency (A549 [3]; sulindac 0.5 mM) was 65.0 ± 1.5 + a % and the transduction efficiency (H1299 [4]; sulindac 0.125 mM) was 80.0 ± 0.5%. For the same molecule, the transduction efficiency (H1299 [4]; sulindac 0.25 mM) was 78.6 ± 1.2%, the transduction efficiency (H1299 [4]; sulindac 0.5 mM) was 82.7 ± 2.8% and the transduction efficiency (CCD-16 [5]; sulindac 0.125 mM) was 12.1 ± 0.4%. The transduction efficiency (CCD-16 [5]; sulindac 0.25 mM) was 11.1 ± 1.0%, the transduction efficiency (CCD-16 [5]; sulindac 0.5 mM) was 13.7 ± 0.4% and the proteasome activity [6] was “does not inhibit”. For the same molecule, the IC50 (CCD-16 [7]; Homo sapiens, read-out: IC50 of growth inhibition) was 940 µM, the “inhibitory effect on cell proliferation” value (CCD-16 [7]; normal cells, 1 and 2 mM) was 60% and the IC50 (A549 [8]; Homo sapiens, A549, read-out: IC50 of growth inhibition) was 580 µM. The “inhibitory effect on cell proliferation” value (A549 [8]; tumor cells, 1 and 2 mM) was > 90%, the NF-κB activation (NF-κB) was “inhibit NF-κB activation” and the “cells in G1” value (A549 [9]; sulindac 0.125 mM) was 64.8%. The “cells in G2/M” value (A549 [9]; sulindac 0.125 mM) was 6.4%, the “cells in S” value (A549 [9]; sulindac 0.125 mM) was 28.9% and the “cells in G1” value (A549 [9]; sulindac 0.5 mM) was 75.6%. The “cells in G2/M” value (A549 [9]; sulindac 0.5 mM) was 6.0%, the “cells in S” value (A549 [9]; sulindac 0.5 mM) was 18.5% and the “cells in G1” value (H1299 [10]; sulindac 0.125 mM) was 66.4%. For the same molecule, the “cells in G2/M” value (H1299 [10]; sulindac 0.125 mM) was 11.4%, the “cells in S” value (H1299 [10]; sulindac 0.125 mM) was 22.3% and the “cells in G1” value (H1299 [10]; sulindac 0.5 mM) was 74.6%. For the same molecule, the “cells in G2/M” value (H1299 [10]; sulindac 0.5 mM) was 12.7% and the “cells in S” value (H1299 [10]; sulindac 0.5 mM) was 13.0%.
